In US20230302022A1, “PREVENTING OR MITIGATING CHEMOTHERAPY INDUCED ALOPECIA USING VITAMIN D” (priority 2016, published 2023):

Columns and labels:
[1] = system: MIAC51 (chloroleukemia cells); test: Chloroleukemia (MIAC51) in rats: cure / survival under chemotherapy with topical calcitriol; assay type: in vivo, rat; conditions: CTX, after Two Rounds of Chemotherapy
Method: For experiments in which rats were transplanted with chloroleukemia, on Day 5 after birth, rats were randomly divided into three groups of 45 each. All rats received 1×10^5 chloroleukemic cell line MIAC51 (i.p.) in 0.1 mL of serum free (SF) RPMI. MIAC51 were cultured in RPMI 1640 supplemented with L-glutamine and 10% fetal bovine serum at 37° C. in a 5% CO2, 100% humidity incubator. Cells were grown to 50% confluency (1.5×106 mL) collected in 50 mL conical tubes, centrifuged at 600 g×10 min. at room temperature and resuspended in SF-RPMI at a concentration of 1×10^6/mL. Group 1 rats received no further treatment. Group 2 rats received topical vehicle and CTX on day 13. […] Topical applications were performed as described above.
On day 23 after birth, a sample of blood was taken from all rats and differentials performed. Rats with leukemia were sacrificed, rats without leukemia were kept and a second differential performed on day 31, at any point if leukemia was detected, animals were sacrificed by CO2 asphyxiation.
On day 5 after birth all rats received 1×105 MIAC51 intraperitoneally in 0.1 mL of serum free (SF) RPMI. MIAC51 were cultured in RPMI 1640 supplemented with L-glutamine and 10% fetal bovine serum at […] in a 5% CO2, 100% humidity incubator. Cells were grown to 50% confluency (1.5×106 mL) collected in 50 mL conical tubes, centrifuged at 600 g for 10 minutes at room temperature and resuspended in SF-RPMI at a concentration of 1×10^6/mL prior to injection.
[…]

Long Evans rats = test: CIA in chloroleukemic Long Evans rats receiving multi-course chemotherapy; assay type: in vivo, rat; conditions: for ALOPECIA 4+ (number of rats): Cyclophosphamide (CTX)

O=P1(N(CCCl)CCCl)NCCCO1 (centres unmarked) [CTX, Cyclophosphamide]
Survival Rate, % [1]: 20% | Cured (number of rats) ([1]; of 40): 8 | ALOPECIA 4+ (number of rats) (Long Evans rats; after First Round of Chemotherapy): 40 | ALOPECIA 4+ (number of rats) (Long Evans rats; after Second Round of Chemotherapy): 8 | extent of alopecia (grade), all rats (Long Evans rats; cyclophosphamide regimen, after the first round of chemotherapy): +4
